Here are results for seven compounds from paper PMC13502167, “Ampyrone is a direct agonist of human tyrosinase and a potential therapeutic for hypopigmentation disorders” (JCI Insight, 2026).

In assay [1] the target is T1, human tyrosinase (hTYR^WT) (Homo sapiens, UniProt P14679).
T1 construct: gene TYR
T1 sequence (P14679 19-469): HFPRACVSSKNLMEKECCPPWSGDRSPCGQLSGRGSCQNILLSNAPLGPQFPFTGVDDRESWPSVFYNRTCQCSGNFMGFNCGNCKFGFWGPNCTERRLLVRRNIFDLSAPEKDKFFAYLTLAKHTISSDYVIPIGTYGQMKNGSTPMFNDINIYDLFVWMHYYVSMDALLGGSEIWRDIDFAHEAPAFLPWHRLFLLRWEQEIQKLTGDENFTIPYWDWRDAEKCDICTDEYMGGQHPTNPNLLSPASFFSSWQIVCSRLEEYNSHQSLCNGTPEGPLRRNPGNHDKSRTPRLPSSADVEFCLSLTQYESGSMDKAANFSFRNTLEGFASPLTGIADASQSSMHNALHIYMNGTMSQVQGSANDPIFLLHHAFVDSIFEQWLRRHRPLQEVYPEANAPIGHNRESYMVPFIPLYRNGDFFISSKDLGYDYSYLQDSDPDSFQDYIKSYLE
The experiment in a line: biochemical.

Assay [2] concerns the target T1, human tyrosinase (hTYR^WT). The experiment in a line: activation of diphenol oxidase and monophenolase activity of purified enzyme; urea denaturation. It counts as biochemical.
Assay [3] has as its target T2, human tyrosinase (hTYR^P406L) (Homo sapiens, UniProt P14679, P406L).
T2 construct: gene TYR; recombinant intramelanosomal domain, P406L variant, His-tag
T2 sequence (P14679 19-469 P406L): T1 sequence (P14679 19-469) with P388L
The experiment in a line: activation of diphenol oxidase and monophenolase activity of purified enzyme. It counts as biochemical.

The structures appear in SMILES notation. Numbering of substitutions follows the chain as printed. Like-named read-outs stand apart in the source and are kept apart here.

On to `O=c1cc(-c2ccc(O)c(O)c2)oc2ccccc12` [3’,4’-dihydroxyflavone], for which the IC50 in assay [1] (read-out: IC50) amounted to 9.22 µM.
As for `Oc1ccc(Nc2ccccc2)cc1` [4-anilinophenol], the IC50 in assay [1] (read-out: IC50) is 3.2 µM.
Same read-out and setting: the figure for `Nc1nc2nc[nH]c2c(=S)[nH]1` [6-thioguanine] is 540 µM.
`Cc1c(N)c(=O)n(-c2ccccc2)n1C` [ampyrone, 4-Amino-2,3-dimethyl-1-phenyl-3-pyrazol-5-one]: the results for the EC50 in assay [2] and in assay [3] were 670 µM and 3.57 mM, respectively.
For the compound `COc1ccc(-c2cc(=S)ss2)cc1` [anethole trithione], the IC50 in assay [1] (read-out: IC50) worked out at 1.45 µM.
On to `CN(C)c1ccc(N=NS(=O)(=O)O)cc1` [fenaminosulf], for which the IC50 in assay [1] (read-out: IC50) turned out to be 8.12 µM.
Regarding `Oc1ccc(C2=Cc3ccc(O)cc3OC2)cc1` [idronoxil], in assay [1], the IC50 was 29.1 µM.
